The nature of data set [1]: Dissolution rate of micronized drug substance (background statement). The conditions noted are these: agglomerating drug substance. Format: physicochemical.
For data set [2] the following is noted: 25° C., cited from earlier work.
The conditions of data set [3]: cited from earlier work.

Molecules are shown by their SMILES. Counter-ions that a name gives are not always drawn.

`CC(C)(C)NC(=O)[C@@H]1C[C@@H]2CCCC[C@@H]2CN1C[C@@H](O)[C@H](Cc1ccccc1)NC(=O)[C@H](CC(N)=O)NC(=O)c1ccc2ccccc2n1` [Micronized saquinavir mesylate, saquinavir mesylate]: the “dissolution rate (in words)” value in data set [1] is “slow dissolution rate”.
Turning to `CC(C)(C)NC(=O)[C@@H]1C[C@@H]2CCCC[C@@H]2CN1C[C@@H](O)[C@H](Cc1ccccc1)NC(=O)[C@H](CC(N)=O)NC(=O)c1ccc2ccccc2n1` [Saquinavir mesylate], the “solubility in simulated gastric fluid” value in data set [2] (simulated gastric fluid) is 0.08 mg/mL. In data set [2] (simulated intestinal fluid), the “solubility in simulated intestinal fluid” value is on record as “practically insoluble”.
As for `CC(C)(C)NC(=O)[C@@H]1C[C@@H]2CCCC[C@@H]2CN1C[C@@H](O)[C@H](Cc1ccccc1)NC(=O)[C@H](CC(N)=O)NC(=O)c1ccc2ccccc2n1` [saquinavir], the “Absolute bioavailability (average)” value in data set [3] (8 healthy volunteers, single 600 mg dose (3×200 mg capsules) following a high fat breakfast, CV 73%) is 4%. Moreover, the “Absolute bioavailability (range)” value in data set [3] (8 healthy volunteers, single 600 mg dose (3×200 mg capsules) following a high fat breakfast) is 1-9%. Also, in data set [3] (n=6, on average), the “24-hour AUC and Cmax after a higher calorie meal versus a lower calorie meal” value is recorded as “two times higher”.

These data come from patent US20090054481A1 (priority 2003, published 2009).
